According to patent publication US20250163038A1, “CBL-B MODULATORS AND USES THEREOF” (Nimbus Clio, Inc., priority 2021, published 2025):
pEC50, pIC50: −log10 of the molar value. Counter-ions that a name gives are not always drawn. Like-named read-outs stand apart in the source and are kept apart here.

Tests used:
[1] = system: Jurkat (clone E6-1) cells with NFAT luciferase reporter; test: Jurkat reporter assay (NFAT Luciferase); type: cell-based; conditions: Homo sapiens; for pEC50: Jurkat NFAT luciferase reporter cells, anti-CD3 stimulation, 6 hr, read-out: Jurkat NFAT EC50
[2] = molecular target: T1, Recombinant human c-Cbl (aa 47-435) (Homo sapiens, UniProt P22681); test: c-Cbl Biochemical Assay (TR-FRET); conditions: hc-Cbl Biochemical Assay (TR-FRET); read-out: TR-FRET hcCbl IC50
T1 sequence (P22681 47-435): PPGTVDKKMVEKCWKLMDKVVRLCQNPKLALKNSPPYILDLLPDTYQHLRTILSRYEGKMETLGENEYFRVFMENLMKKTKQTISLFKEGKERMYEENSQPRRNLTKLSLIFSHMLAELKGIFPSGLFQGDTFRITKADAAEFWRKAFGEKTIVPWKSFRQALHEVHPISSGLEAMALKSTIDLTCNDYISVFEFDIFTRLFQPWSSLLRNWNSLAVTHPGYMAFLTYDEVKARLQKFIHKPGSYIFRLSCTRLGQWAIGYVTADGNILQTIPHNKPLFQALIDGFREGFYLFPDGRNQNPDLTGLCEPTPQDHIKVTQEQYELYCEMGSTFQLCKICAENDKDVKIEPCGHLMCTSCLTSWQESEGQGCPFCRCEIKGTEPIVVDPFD

[3] = molecular target: Recombinant human Cbl-b (aa 36-427) (Homo sapiens, UniProt Q13191); test: Cbl-b Biochemical Assay (TR-FRET); conditions: read-out: TR-FRET hCbl-b IC50
Recombinant human Cbl-b (aa 36-427), sequence (Q13191 36-427): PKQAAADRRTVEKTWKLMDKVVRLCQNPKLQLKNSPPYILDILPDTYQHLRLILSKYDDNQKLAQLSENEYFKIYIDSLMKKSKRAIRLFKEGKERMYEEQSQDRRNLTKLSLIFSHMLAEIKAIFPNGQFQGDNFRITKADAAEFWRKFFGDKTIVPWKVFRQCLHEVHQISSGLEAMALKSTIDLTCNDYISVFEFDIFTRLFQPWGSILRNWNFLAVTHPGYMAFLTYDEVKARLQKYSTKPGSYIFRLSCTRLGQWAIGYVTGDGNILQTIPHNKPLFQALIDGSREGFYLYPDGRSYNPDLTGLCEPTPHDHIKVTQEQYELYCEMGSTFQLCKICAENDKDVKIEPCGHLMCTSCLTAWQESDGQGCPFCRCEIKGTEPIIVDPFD

SMILES | pEC50 [1] | pIC50 [2] | pIC50 [3] | EC50 ([1]; Jurkat, 6 h, read-out: Jurkat NFAT EC50 (μM))
CC(C)NCc1cc(C(F)(F)F)c2oc(-c3cccc(-c4ccc(F)cc4-c4nncn4C)c3)nc2c1 [EP-2, N-((2-(4′-Fluoro-2′-(4-methyl-4H-1,2,4-triazol-3-yl)-[1,1′-biphenyl]-3-yl)-7-(trifluoromethyl)benzo[d]oxazol-5-yl)methyl)propan-2-amine] | 6.00 to 6.70 | 6.00 to 6.70 | > 6.70 | –
CC(NCC1(O)CCC1)c1cc(C(F)(F)F)c2oc(-c3cccc(-c4ccc(F)cc4-c4nncn4C)c3)nc2c1 (stereo not drawn) [EF-1, 1-(((1-(2-(4′-Fluoro-2′-(4-methyl-4H-1,2,4-triazol-3-yl)-[1,1′-biphenyl]-3-yl)-7-(trifluoromethyl)benzo[d]oxazol-5-yl)ethyl)amino)methyl)cyclobutan-1-ol, formate] | > 6.70 | > 6.70 | > 6.70 | –
C[C@H](c1cc(C(F)(F)F)c2oc(-c3cccc(C4(Cc5nncn5C)COC4)c3)nc2c1)N1CCC2(CC2)C1 [AAD-1, 5-[(1R)-1-{5-azaspiro[2.4]heptan-5-yl}ethyl]-2-(3-{3-[(4-methyl-1,2,4-triazol-3-yl)methyl]oxetan-3-yl}phenyl)-7-(trifluoromethyl)-1,3-benzoxazole] | 6.00 to 6.70 | 5.00 to 6.00 | > 6.70 | –
Cn1cnnc1-c1cc(F)ccc1-c1cccc(-c2nc3cc(CNCC4(O)CCCC4)cc(C(F)(F)F)c3o2)c1 [AK-2, 1-((((2-(4′-Fluoro-2′-(4-methyl-4H-1,2,4-triazol-3-yl)-[1,1′-biphenyl]-3-yl)-7-(trifluoromethyl)benzo[d]oxazol-5-yl)methyl)amino)methyl)cyclopentan-1-ol, Acetate] | 6.00 to 6.70 | 5.00 to 6.00 | > 6.70 | –
Cn1cnnc1-c1cc(F)ccc1-c1cc(-c2nc3cc(CN[C@@H]4CCC[C@@H]4O)cc(C(F)(F)F)c3o2)nc(C2CC2)c1 [ADA-6, (1S,2R)-2-{[(2-{6-Cyclopropyl-4-[4-fluoro-2-(4-methyl-1,2,4-triazol-3-yl)phenyl]pyridin-2-yl}-7-(trifluoromethyl)-1,3-benzoxazol-5-yl)methyl]amino}cyclopentan-1-ol] | > 6.70 | > 6.70 | > 6.70 | –
C[C@@H](c1cc(C(F)(F)F)c2[nH]c(-c3cccc(C4(Cc5nncn5C)COC4)c3)nc2c1)N1CCC2(CC2)C1 [ACM-1, (S)-5-(1-(5-Azaspiro[2.4]heptan-5-yl)ethyl)-2-(3-(3-((4-methyl-4H-1,2,4-triazol-3-yl)methyl)oxetan-3-yl)phenyl)-7-(trifluoromethyl)-1H-benzo[d]imidazole] | 5.00 to 6.00 | 4.30 to 5.00 | 6.00 to 6.70 | –
CO[C@H](C)CNCc1cc(F)c2oc(-c3cc(-c4ccc(F)cc4-c4nncn4C)cc(C4CC4)n3)nc2c1 [AFN-2, [(2-{6-Cyclopropyl-4-[4-fluoro-2-(4-methyl-1,2,4-triazol-3-yl)phenyl]pyridin-2-yl}-7-fluoro-1,3-benzoxazol-5-yl)methyl][(2R)-2-methoxypropyl]amine] | 6.00 to 6.70 | > 6.70 | > 6.70 | –
Cn1cnnc1-c1cc(F)ccc1-c1cc(-c2nc3cc(CNCC4CC4)ccc3o2)nc(C2CC2)c1 [AEI-1, [(2-{6-Cyclopropyl-4-[4-fluoro-2-(4-methyl-1,2,4-triazol-3-yl)phenyl]pyridin-2-yl}-1,3-benzoxazol-5-yl)methyl](cyclopropylmethyl)amine] | 6.00 to 6.70 | > 6.70 | > 6.70 | –
CCC1(CNCc2cc(C(F)(F)F)c3oc(-c4cccc(-c5ccc(F)cc5-c5nncn5C)c4)nc3c2)CCC1 [HP-2, 1-(1-Ethylcyclobutyl)-N-((2-(4′-fluoro-2′-(4-methyl-4H-1,2,4-triazol-3-yl)-[1,1′-biphenyl]-3-yl)-7-(trifluoromethyl)benzo[d]oxazol-5-yl)methyl)methanamine] | > 6.70 | > 6.70 | > 6.70 | –
COCCCNCc1cc(OC)c2oc(-c3cccc(-c4ccc(F)cc4-c4nncn4C)c3)nc2c1 [FY-1, N-((2-(4′-Fluoro-2′-(4-methyl-4H-1,2,4-triazol-3-yl)-[1,1′-biphenyl]-3-yl)-7-methoxybenzo[d]oxazol-5-yl)methyl)-3-methoxypropan-1-amine] | 5.00 to 6.00 | 6.00 to 6.70 | > 6.70 | –
Cn1cnnc1-c1cc(F)ccc1-c1cccc(-c2nc3cc(CNCCF)cc(C(F)(F)F)c3o2)c1 [FD-2, 2-fluoro-N-((2-(4′-fluoro-2′-(4-methyl-4H-1,2,4-triazol-3-yl)-[1,1′-biphenyl]-3-yl)-7-(trifluoromethyl)benzo[d]oxazol-5-yl)methyl)ethan-1-amine] | 6.00 to 6.70 | > 6.70 | > 6.70 | –
CN1CCC[C@H](NCc2cc(C(F)(F)F)c3[nH]c(-c4cccc(-c5ccc(F)cc5-c5nncn5C)c4)nc3c2)C1=O [CC-2, (S)-3-(((2-(4′-Fluoro-2′-(4-methyl-4H-1,2,4-triazol-3-yl)-[1,1′-biphenyl]-3-yl)-7-(trifluoromethyl)-1H-benzo[d]imidazol-5-yl)methyl)amino)-1-methylpiperidin-2-one, formic Acid] | 5.00 to 6.00 | 5.00 to 6.00 | > 6.70 | –
C[C@H]1CCCN(Cc2cc(C(F)(F)F)c3oc(-c4cccc([C@]5(c6nncn6C)C[C@@H](C)C5)c4)nc3c2)C1 [AAY-2, 5-{[(3S)-3-Methylpiperidin-1-yl]methyl}-2-{3-[(1r,3s)-3-methyl-1-(4-methyl-1,2,4-triazol-3-yl)cyclobutyl]phenyl}-7-(trifluoromethyl)-1,3-benzoxazole] | 5.00 to 6.00 | 5.00 to 6.00 | > 6.70 | –
COc1cc(CNC[C@H]2CCCO2)cc2nc(-c3cccc(-c4ccc(F)cc4-c4nncn4C)c3)oc12 [FR-1, (R)-1-(2-(4′-Fluoro-2′-(4-methyl-4H-1,2,4-triazol-3-yl)-[1,1′-biphenyl]-3-yl)-7-methoxybenzo[d]oxazol-5-yl)-N-((tetrahydrofuran-2-yl)methyl)methanamine] | 6.00 to 6.70 | 6.00 to 6.70 | > 6.70 | –
C[C@H]1CCC[C@@H](NCc2cc(C(F)(F)F)c3oc(-c4cccc(-c5ccc(F)cc5-c5nncn5C)c4)nc3c2)C1 (racemic) [FV-2, rac-(1R,3S)—N-((2-(4′-fluoro-2′-(4-methyl-4H-1,2,4-triazol-3-yl)-[1,1′-biphenyl]-3-yl)-7-(trifluoromethyl)benzo[d]oxazol-5-yl)methyl)-3-methylcyclohexan-1-amine] | > 6.70 | > 6.70 | > 6.70 | –
Cn1cnnc1-c1cc(F)ccc1-c1cccc(-c2nc3cc(CNC[C@@H](O)C4CC4)cc(C(F)(F)F)c3o2)c1 (single isomer, unassigned) [DT-3] | > 6.70 | > 6.70 | > 6.70 | –
C[C@H](c1cc(C(F)(F)F)c2[nH]c(-c3cccc(C4(Cc5nncn5C)COC4)c3)nc2c1)N1CCC2(CC2)C1 [ACN-1, (R)-5-(1-(5-Azaspiro[2.4]heptan-5-yl)ethyl)-2-(3-(3-((4-methyl-4H-1,2,4-triazol-3-yl)methyl)oxetan-3-yl)phenyl)-7-(trifluoromethyl)-1H-benzo[d]imidazole] | 5.00 to 6.00 | 6.00 to 6.70 | 6.00 to 6.70 | –
CCCNCc1cc(C(F)(F)F)c2oc(-c3cccc(-c4ccc(F)cc4-c4nncn4C)c3)nc2c1 [FL-2, N-((2-(4′-Fluoro-2′-(4-methyl-4H-1,2,4-triazol-3-yl)-[1,1′-biphenyl]-3-yl)-7-(trifluoromethyl)benzo[d]oxazol-5-yl)methyl)propan-1-amine] | > 6.70 | > 6.70 | > 6.70 | –
COc1cc(CN[C@@H]2C[C@H](O)C2(C)C)cc2nc(-c3cccc(-c4ccc(F)cc4-c4nncn4C)c3)oc12 [HF-1, (1S,3R)-3-(((2-(4′-Fluoro-2′-(4-methyl-4H-1,2,4-triazol-3-yl)-[1,1′-biphenyl]-3-yl)-7-methoxybenzo[d]oxazol-5-yl)methyl)amino)-2,2-dimethylcyclobutan-1-ol] | 5.00 to 6.00 | 6.00 to 6.70 | > 6.70 | –
Cn1cnnc1-c1cc(F)ccc1-c1cccc(-c2nc3cc(CN[C@@H]4CCC[C@]4(C)O)cc(C(F)(F)F)c3o2)c1 [DP-6, (1S,2R)-2-(((2-(4′-Fluoro-2′-(4-methyl-4H-1,2,4-triazol-3-yl)-[1,1′-biphenyl]-3-yl)-7-(trifluoromethyl)benzo[d]oxazol-5-yl)methyl)amino)-1-methylcyclopentan-1-ol] | > 6.70 | > 6.70 | > 6.70 | –
Cn1cnnc1-c1cc(F)ccc1-c1cc(-c2nc3cc(CN)cc(F)c3o2)nc(C2CC2)c1 [AHM-3, 1-(2-{6-cyclopropyl-4-[4-fluoro-2-(4-methyl-1,2,4-triazol-3-yl)phenyl]pyridin-2-yl}-7-fluoro-1,3-benzoxazol-5-yl)methanamine] | – | 6.00 to 6.70 | > 6.70 | 1 to 10 µM
Cc1cc([C@@H](C)NCC2CCC2)cc2nc(-c3cc(-c4ccc(F)cc4-c4nncn4C)cc(C4CC4)n3)oc12 [AGY-1, (cyclobutylmethyl)[(1R)-1-(2-{6-cyclopropyl-4-[4-fluoro-2-(4-methyl-1,2,4-triazol-3-yl)phenyl]pyridin-2-yl}-7-methyl-1,3-benzoxazol-5-yl)ethyl]amine] | > 6.70 | > 6.70 | > 6.70 | –
